In patent publication US20050163773A1, “Methods and pharmaceutical compositions for dopaminergic modulation of t-cell adhesion and activity” (priority 2001, published 2005):
“Also recorded” adds a separate entry of the source.

Experiments:
[1] = test system: Dopamine receptors on normal human T-cells; conditions: for blocking of DPAT-induced T-cell adhesion to fibronectin: DPAT 10 nM
Description: Non-radioactive assessment of T-cell binding was performed as described in Material and Methods, results presented as the mean ±OD of bound T-cells from 4-6 wells.
The treated cells were suspended in adhesion medium and incubated (30 min., 37° C.) in a humidified 10% CO2 incubator. The cells were seeded in the fibronectin-coated microtiter plates, and the plates were then returned to the incubator for an additional 30 min. incubation. The amount of T-cell adhesion was determined as above.

[2] = test system: IL-10 secretion; experiment: IL-10 secretion by human peripheral T-cells (sandwich ELISA); type: cell-based; conditions: for inhibition of Dopamine-induced IL-10 secretion by receptor-specific antagonists: L-741,626 10^−7 M, U-Mal 10^−6 M, L-741,741 10^−6 M
Excerpt: The results are expressed as pg/ml IL-10. […] Immunostaining is with intracellular anti-IL-10 FITC conjugated (FL-1) and anti-CD4 PE conjugated (FL-2) antibodies, as described in Materials and Methods hereinbelow.
(§1) The results are expressed as pg/mi.
(§2) The results are expressed as pg/ml.
as §2, §2

[3] = test system: TNFα secretion; experiment: TNFα secretion by human peripheral T-cells (sandwich ELISA); type: cell-based
Excerpt: as §2, §1, §2, §2, §2

[4] = test system: IL-4 secretion; conditions: Dopamine 10^−8 M, 24 hours
[5] = test system: normal human peripheral T-cells; conditions: Dopamine 10^−8 M, 48 hours
[6] = test system: IL-10 secretion; conditions: Dopamine 10^−8 M, 72 hours
[7] = test system: normal human peripheral T-cells
[8] = test system: normal human T-cells; experiment: T-cell adhesion assay (adhesion of human T-cells to fibronectin); conditions: dose dependence, human T-cells
Description: T-cell adhesion assay: In the majority of the experiments, adhesion of purified normal human T-cells to fibronectin was assayed with radioactively labeled T-cells as follows: normal human T-cells, purified from a fresh blood sample, were labeled with Na2[^51CrO4], washed, and resuspended in adhesion medium (RPMI-1640 supplemented with 2% BSA, 1 mM Ca^++, 1 mM Mg^++, 1% sodium pyruvate, 1% glucose, and 1% HEPES buffer). The cells were then pre-treated (30 min., 37° C.) with DPAT, and added to fibronectin coated (1 μg/well; Sigma Chemicals, St. Louis, Mo.) microtiter flat-bottomed 96 well plates (1×10^5 cells/100 μl/well). The plates were placed in a humidified incubator (37° C., 30 min., 10% CO2), and than washed thoroughly several times with PBS, to remove non-adherent T-cells. The adherent T-cells were lysed with 1% Tween 20 in 1N NaOH, and the radioactivity in the resulting supernatants was determined in a γ-counter. For each experimental group, results were expressed as the mean CPM±SD of bound T-cells from quadruplicate wells. DPAT-treated T-cell adhesion to BSA-(rather than fibronectin) coated wells, and untreated T-cell adhesion to fibronectin coated wells, were the standard negative controls.
Non-radioactive T-cell adhesion assays: Alternatively, T-cell adhesion assays were performed with non-radioactively labeled cells, differing from the above protocol only in the final detection steps which were performed as follows: After the final washing of the adhesion plates and removal of the non adherent cells, the microtiter wells were supplemented with lysis and substrate solution (60 μl/well of: 0.5% Triton X-100 in water mixed with an equal volume of 7.5 mM p-nitrophenol-N-acetyl-β-D-glucosaminide, (Sigma Chemicals, St. Louis, Mo.) in 0.1M citrate buffer pH=5.0). The plates were then incubated (˜18hr) in a CO2-free 37° C. incubator, supplemented with stop solution (90 μl/well of 50 mM glycine, (Sigma Chemicals, St. Louis, Mo.) pH=10.4 containing 5 mM EDTA), and the optical density was measured at 405 nm in a standard Elisa reader.

[9] = test system: SJL/J anti PLP 139-151 T-cells; experiment: Experimental autoimmune encephalomyelitis (EAE) induced by encephalitogenic T-cells treated ex vivo; type: in vivo, mouse; conditions: U-Mal 10^−7 M, 5 minutes before DPAT
[10] = test system: oxazalone-sensitized T-cells; experiment: Passively transferred delayed type hypersensitivity (DTH) with T-cells treated ex vivo; type: in vivo, mouse
Description: Lymph nodes were removed from oxazalone-sensitized mice, and the T-cell suspension was exposed ex-vivo to increasing concentrations of DPAT (FIG. 9A, DPAT […]-DPAT 10^−6M) as described for FIG. 8 hereinabove. Control T-cells were incubated with medium only (untreated T-cells). The T-cells were then washed, resuspended in PBS and injected intravenously into naive syngeneic mice. The ears of the recipient mice were than challenged with oxazalone, and the degree of ear swelling was measured by micrometer 24 hr later. DTH is expressed as the mean ±SD of ear swelling in units of 10^−2 mm. […] Oxazalone-sensitized T-cells were incubated ex vivo for one hour with either DPAT (10^−8 M, +DPAT) or U-Mal (10^−7 M, +U-Mal), or both. The T-cells were then washed, resuspended in PBS, injected intravenously into normal recipients, and DTH measured as described hereinabove. […] FIGS. 9A and 9B represent two individual experiments, each experimental group consisting of 8 mice.
Passively transferred delayed type hypersenisitivity (DTH): Groups of 6-8 BALB/c female mice (The Jackson Laboratory, Bar Harbor, Mass., USA) were sensitized on the abdominal skin with 200 μt of 2% oxazalone dissolved in acetone/olive oil [4:1 vol/vol)] applied topically. Five days later, lymph nodes were removed from the sensitized mice, and a cell suspension prepared. The cells (3-5×10^6/ml in RPMI, no additional supplements) were than added for […] incubation ([…]. 37° C., 10% CO2 humidified incubator) with either DPAT, U-Mal, or both (in the latter combination the antagonist added 5 minutes before the agonist). The cells were than washed, resuspended in PBS, and injected IV (40×10^6 /mouse) into normal BALB/c recipients. Immediately afterwards the recipient mice were […] with 10 μl of 2% oxazalone in acetone/olive oil, applied topically to each side of the ear. A constant area of the ear was measured immediately before challenge and 24 hr after the challenge with a Mitutoyo engineer's micrometer. The individual measuring the ear swelling was unaware of the identity of the mice groups. The DTH reaction is expressed as the mean±SD (for each group) of the increment of ear swelling 24 hours after inoculation of the oxazalone-sensitized T-cells, in units of 10^−2 mm.

[11] = test system: α4β1 and α5β1 integrins; experiment: Inhibition of induced T-cell adhesion to fibronectin with specific integrin blockers; type: cell-based, human; conditions: for blocking of DPAT-induced T-cell adhesion to fibronectin by integrin blockers: DPAT 10 nM; for blocking of DPAT-induced T-cell adhesion to fibronectin by integrin blockers / blocking of Dopamine-induced T-cell adhesion to fibronectin by integrin blockers: mAbs 15-25 μg/ml, peptides 50 μg/ml; for blocking of Dopamine-induced T-cell adhesion to fibronectin by integrin blockers: Dopamine 10 nM; for inhibition of PMA-induced T-cell adhesion to fibronectin by integrin blockers: PMA as positive control
Description: The results are presented as the mean ±SD CPM of bound T-cells from quadruplicate wells. One experiment, representative of two, is presented for each of the three inducers of T-cell binding.
The treated cells were seeded in fibronectin-coated microtiter plates.

CC(C)(C)[C@]1(O)CCN2C[C@H]3c4ccccc4CCc4cccc(c43)[C@@H]2C1 [Butaclamol]
blocking of DPAT-induced T-cell adhesion to fibronectin [1]: without effect

NCCc1ccc(O)c(O)c1 [Dopamine]
Dopamine concentration inducing maximal IL-10 secretion ([2]; 72 hours): 10^−4 M
Dopamine concentration with significant effect on IL-10 secretion ([2]; 72 hours): ≥ 10^−8 M
increase in IL-10 secretion ([2]; Dopamine 10 nM, 72 hours): 2.5 fold
IL-10 secretion at excess Dopamine ([2]; Dopamine 10^−3 M): drastic reduction in cytokine secretion
time of maximal IL-10 secretion ([2]; Dopamine 10^−8 M): 72 h
IL-10 release ([2]; Dopamine 10^−8 M, 72 hours, no antigen stimulation): induced a strong release of IL-10
Dopamine concentration inducing maximal TNFα secretion ([3]; 24 hours): 10^−4 M
Dopamine concentration with significant effect on TNFα secretion ([3]; 24 hours): ≥ 10^−8 M
TNFα secretion at excess Dopamine ([3]; Dopamine 10^−3 M): drastic reduction in cytokine secretion
TNF-α release ([3]; Dopamine 10^−8 M, 24 hours, no antigen stimulation): induced a strong release of TNF-α
IL-4 secretion [4]: but not IFN-γ (FIG. 11B) or IL-4
increase in the number of IL-10 producing T-helper cells [5]: 9%
IL-10 secretion, cloned resting Th0 cells [6]: strong induction
IL-10 secretion, cloned resting Th1 cells ("forbidden" cytokine) [6]: secreting significant amounts of IL-10
IL-10 secretion, cloned resting Th2 cells [6]: strong induction
cellular death in normal T-cells [7]: induces cellular death
r-RNA bands in total RNA (loss of viability) ([7]; Dopamine 10^−3): near total absence of r-RNA bands
optimum concentration for induction of T-cell adhesion to fibronectin [8]: 10 nM

OC1(c2ccc(Cl)cc2)CCN(Cc2c[nH]c3ccccc23)CC1 [L-741,626]
inhibition of Dopamine-induced IL-10 secretion by receptor-specific antagonists ([2]; Dopamine 10^−8 M, 72 hours): inhibited by the D2

Oc1cc2c(cc1O)C(c1ccccc1)CNCC2 (centres unmarked) [SKF 38393]
induction of TNFα secretion by receptor-specific Dopamine agonists ([3]; agonist 10^−7 M, 24 hours): induced by D1

CCCN(CCC)C1Cc2cc(OC)c(OC)cc2C1.O=C(O)/C=C\C(=O)O [U-Mal, U-99194A maleate]
effect of pre-treatment on the DPAT suppressive effect in EAE [9]: prevented
effect on DTH by itself ([10]; U-Mal 10^−7 M alone): no effect by itself
effect of pre-treatment on DPAT suppression of DTH ([10]; U-Mal 10^−7 M, 5 minutes before DPAT 10^−8 M): near total block of protection; also recorded: prevented
inhibition of Dopamine-induced IL-10 secretion by receptor-specific antagonists ([2]; Dopamine 10^−8 M, 72 hours): inhibited by the D2 and D3
inhibition of Dopamine-induced TNFα secretion by receptor-specific antagonists ([3]; Dopamine 10^−8 M, 24 hours, L-741,626 10^−7 M, U-Mal 10^−6 M, L-741,741 10^−6 M): inhibited by D3
blocking of DPAT-induced T-cell adhesion to fibronectin [1]: succeeded in blocking
independent effect on T-cell adhesion to fibronectin ([1]; antagonist alone, data not shown): no independent effect
toxic effects on the human T-cells ([1]; data not shown): no toxic effects

gly-arg-gly-asp-ser (GRGDS) [RGD peptide]
blocking of DPAT-induced T-cell adhesion to fibronectin by integrin blockers [11]: effectively blocked
blocking of Dopamine-induced T-cell adhesion to fibronectin by integrin blockers [11]: effectively blocked
inhibition of PMA-induced T-cell adhesion to fibronectin by integrin blockers [11]: inhibition

gly-arg-gly-glu-ser (GRGESP) [RGE-containing peptide, non-relevant RGE-containing control peptide]
blocking of DPAT-induced T-cell adhesion to fibronectin by integrin blockers [11]: No significant effect
blocking of Dopamine-induced T-cell adhesion to fibronectin by integrin blockers [11]: No significant effect
inhibition of PMA-induced T-cell adhesion to fibronectin by integrin blockers [11]: insensitivity
